Measurements reported in patent US20040110802A1, “Antibacterial benzoic acid derivatives” (priority 2002, published 2004).
≈ marks a conversion by molar mass, not a printed value.

These compounds were tested on SAUR 9218 (assay: MIC Test Method, standard agar dilution). Conditions: agar dilution, Mueller Hinton agar, incubated overnight at 35° C.; lowest concentration that inhibits visible growth; read-out: SAUR 9218 MIC.
Type: cell-based
Outline: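 MIC (μg/ml) was read as the lowest drug level without visible growth of SAUR 9218 after overnight incubation at 35 °C. Inocula of about 10^4 to 10^5 cells per spot were applied to Mueller Hinton agar containing 2-fold serial compound dilutions.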

| Compound | MIC [µg/mL] |
| --- | --- |
| Cc1c(S(=O)(=O)NCCCn2ccnc2)csc1C(=O)Nc1ccc(Br)cc1C(=O)O | > 128 |
| Cc1c(S(=O)(=O)N2CC3CC2CN3Cc2ccccc2)csc1C(=O)Nc1ccc(Br)cc1C(=O)O (stereo not drawn) | > 128 |
| Cc1sc(C(=O)Nc2ccc(Br)cc2C(=O)O)cc1S(=O)(=O)N1CC2CC1CN2Cc1ccccc1 (stereo not drawn) | 16 (≈ 27.1 µM) |
| O=C(Nc1ccc(Br)cc1C(=O)O)c1ccco1 | > 128 |
| O=C(Nc1ccc(Br)cc1C(=O)O)c1ccc(Br)o1 | 64 (≈ 165 µM) |
| O=C(Nc1ccc(Br)cc1C(=O)O)c1ccc[nH]1 | > 128 |
| O=C(Nc1ccc(Br)cc1C(=O)O)c1ccoc1 | > 128 |
| Cc1ccsc1C(=O)Nc1ccc(Br)cc1C(=O)O | > 128 |
| Cc1ccc(C(=O)Nc2ccc(Br)cc2C(=O)O)s1 | 64 (≈ 188 µM) |
| O=C(Nc1ccc(Br)cc1C(=O)O)c1ncc(-c2ccccc2C(F)(F)F)o1 | 1 (≈ 2.2 µM) |
| N#Cc1ccc(NC(=O)c2cc3cccc(NC(=O)c4ccc(Cl)nc4)c3[nH]2)c(C(=O)O)c1 | 1 (≈ 2.17 µM) |
| O=C(Nc1ccc(Cl)cc1C(=O)O)c1cc(-c2ccccc2F)on1 | 0.25 (≈ 0.693 µM) |
| O=C(Nc1ccc(Cl)cc1C(=O)O)c1cc(-c2ccccc2Cl)on1 | 0.5 (≈ 1.33 µM) |
| Cc1ccccc1-c1cc(C(=O)Nc2ccc(C#N)cc2C(=O)O)no1 | 0.25 (≈ 0.72 µM) |
| CC(C)[Si](c1cc(C(=O)Nc2ccc(C#N)cc2C(=O)O)no1)(C(C)C)C(C)C | 0.5 (≈ 1.21 µM) |
| N#Cc1ccc(NC(=O)c2cc3cccc(NC(=O)c4ccno4)c3[nH]2)c(C(=O)O)c1 | 2 (≈ 4.82 µM) |
| N#Cc1ccc(NC(=O)c2cc3cccc(NC(=O)c4ccc(F)cc4F)c3[nH]2)c(C(=O)O)c1 | 1 (≈ 2.17 µM) |
| CC(=O)Nc1cccc2cc(C(=O)Nc3ccc(C#N)cc3C(=O)O)[nH]c12 | 2 (≈ 5.52 µM) |
| N#Cc1ccc(NC(=O)c2cc3cccc(NC(=O)Cc4ccc(Cl)cc4)c3[nH]2)c(C(=O)O)c1 | 0.25 (≈ 0.529 µM) |
| COc1ccc(CC(=O)Nc2cccc3cc(C(=O)Nc4ccc(C#N)cc4C(=O)O)[nH]c23)cc1 | 0.25 (≈ 0.534 µM) |
| N#Cc1ccc(NC(=O)c2cc3cccc(NC(=O)CC4CCCC4)c3[nH]2)c(C(=O)O)c1 | 1 (≈ 2.32 µM) |
| N#Cc1ccc(NC(=O)c2cc3cccc(NC(=O)c4cccc(F)c4)c3[nH]2)c(C(=O)O)c1 | 0.5 (≈ 1.13 µM) |
| N#Cc1cccc(C(=O)Nc2cccc3cc(C(=O)Nc4ccc(C#N)cc4C(=O)O)[nH]c23)c1 | 1 (≈ 2.23 µM) |

| Compound | MIC [µg/mL] |
| --- | --- |
| N#Cc1ccc(NC(=O)c2cc3cccc(NC(=O)C4CCCCC4)c3[nH]2)c(C(=O)O)c1 | 2 (≈ 4.65 µM) |
| CCC(=O)Nc1cccc2cc(C(=O)Nc3ccc(C#N)cc3C(=O)O)[nH]c12 | 2 (≈ 5.31 µM) |
| COC(=O)CCCC(=O)Nc1cccc2cc(C(=O)Nc3ccc(C#N)cc3C(=O)O)[nH]c12 | 0.5 (≈ 1.11 µM) |
| CCCC(=O)Nc1cccc2cc(C(=O)Nc3ccc(C#N)cc3C(=O)O)[nH]c12 | 2 (≈ 5.12 µM) |
| N#Cc1ccc(NC(=O)c2cc3cccc(NC(=O)c4ccc(Br)cc4)c3[nH]2)c(C(=O)O)c1 | 0.25 (≈ 0.497 µM) |
| N#Cc1ccc(NC(=O)c2cc3cccc(NC(=O)CCc4ccccc4)c3[nH]2)c(C(=O)O)c1 | 0.5 (≈ 1.11 µM) |
| N#Cc1ccc(NC(=O)c2cc3cccc(NC(=O)COc4ccccc4)c3[nH]2)c(C(=O)O)c1 | 0.5 (≈ 1.1 µM) |
| N#Cc1ccc(NC(=O)c2cc3cccc(NC(=O)CCC4CCCC4)c3[nH]2)c(C(=O)O)c1 | 0.25 (≈ 0.562 µM) |
| COC(=O)CC(=O)Nc1cccc2cc(C(=O)Nc3ccc(C#N)cc3C(=O)O)[nH]c12 | 4 (≈ 9.52 µM) |
| CCCCC(CC)C(=O)Nc1cccc2cc(C(=O)Nc3ccc(C#N)cc3C(=O)O)[nH]c12 (stereo not drawn) | 0.5 (≈ 1.12 µM) |
| COc1ccc(CC(=O)Nc2cccc3cc(C(=O)Nc4ccc(C#N)cc4C(=O)O)[nH]c23)cc1OC | 1 (≈ 2.01 µM) |
| CC(CC(=O)Nc1cccc2cc(C(=O)Nc3ccc(C#N)cc3C(=O)O)[nH]c12)CC(C)(C)C (stereo not drawn) | 0.5 (≈ 1.09 µM) |
| N#Cc1ccc(NC(=O)c2cc3cccc(NC(=O)C4CC4)c3[nH]2)c(C(=O)O)c1 | 1 (≈ 2.57 µM) |
| COCC(=O)Nc1cccc2cc(C(=O)Nc3ccc(C#N)cc3C(=O)O)[nH]c12 | 4 (≈ 10.2 µM) |
| CC(C)CC(=O)Nc1cccc2cc(C(=O)Nc3ccc(C#N)cc3C(=O)O)[nH]c12 | 2 (≈ 4.95 µM) |
| CCCCC(=O)Nc1cccc2cc(C(=O)Nc3ccc(C#N)cc3C(=O)O)[nH]c12 | 0.5 (≈ 1.24 µM) |
| CC12CCC(C(=O)Nc3cccc4cc(C(=O)Nc5ccc(C#N)cc5C(=O)O)[nH]c34)(OC1=O)C2(C)C (stereo not drawn) | 8 (≈ 16 µM) |
| N#Cc1ccc(NC(=O)c2cc3cccc(NC(=O)C(Cl)c4ccccc4)c3[nH]2)c(C(=O)O)c1 (stereo not drawn) | 0.125 (≈ 0.264 µM) |
| N#Cc1ccc(NC(=O)c2cc3cccc(NC(=O)COCc4ccccc4)c3[nH]2)c(C(=O)O)c1 | 1 (≈ 2.13 µM) |
| CCOC(=O)CC(=O)Nc1cccc2cc(C(=O)Nc3ccc(C#N)cc3C(=O)O)[nH]c12 | 0.5 (≈ 1.15 µM) |
| N#Cc1ccc(NC(=O)c2cc3cccc(NC(=O)C45CC6CC(CC(C6)C4)C5)c3[nH]2)c(C(=O)O)c1 | 16 (≈ 33.2 µM) |
| CCCCCC(=O)Nc1cccc2cc(C(=O)Nc3ccc(C#N)cc3C(=O)O)[nH]c12 | 0.5 (≈ 1.19 µM) |
| N#Cc1ccc(NC(=O)c2cc3cccc(NC(=O)C4CC4c4ccccc4)c3[nH]2)c(C(=O)O)c1 (stereo not drawn) | 0.5 (≈ 1.08 µM) |

| Compound | MIC [µg/mL] |
| --- | --- |
| CCC(C(=O)Nc1cccc2cc(C(=O)Nc3ccc(C#N)cc3C(=O)O)[nH]c12)c1ccccc1 (stereo not drawn) | 0.5 (≈ 1.07 µM) |
| CCCCCCC(=O)Nc1cccc2cc(C(=O)Nc3ccc(C#N)cc3C(=O)O)[nH]c12 | 0.5 (≈ 1.16 µM) |
| CC(=O)OC(C(=O)Nc1cccc2cc(C(=O)Nc3ccc(C#N)cc3C(=O)O)[nH]c12)c1ccccc1 (stereo not drawn) | 1 (≈ 2.01 µM) |
| N#Cc1ccc(NC(=O)c2cc3cccc(NC(=O)c4cccs4)c3[nH]2)c(C(=O)O)c1 | 0.25 (≈ 0.581 µM) |
| CCC(C)C(=O)Nc1cccc2cc(C(=O)Nc3ccc(C#N)cc3C(=O)O)[nH]c12 (stereo not drawn) | 1 (≈ 2.47 µM) |
| COC(=O)CCCCCCC(=O)Nc1cccc2cc(C(=O)Nc3ccc(C#N)cc3C(=O)O)[nH]c12 | 1 (≈ 2.04 µM) |
| CCC(CC)C(=O)Nc1cccc2cc(C(=O)Nc3ccc(C#N)cc3C(=O)O)[nH]c12 | 1 (≈ 2.39 µM) |
| CCCCCCCC(=O)Nc1cccc2cc(C(=O)Nc3ccc(C#N)cc3C(=O)O)[nH]c12 | 0.125 (≈ 0.28 µM) |
| N#Cc1ccc(NC(=O)c2cc3cccc(NC(=O)C4CCC4)c3[nH]2)c(C(=O)O)c1 | 0.5 (≈ 1.24 µM) |
| N#Cc1ccc(NC(=O)c2cc3cccc(N4C(=O)c5ccccc5C4=O)c3[nH]2)c(C(=O)O)c1 | 8 (≈ 17.8 µM) |
| N#Cc1ccc(NC(=O)c2cc3cccc(NC(=O)c4csc(SCc5ccccc5)n4)c3[nH]2)c(C(=O)O)c1 | > 128 |
| N#Cc1ccc(NC(=O)c2cc3cccc(NC(=O)c4cccc(S(=O)(=O)N5CCOCC5)c4)c3[nH]2)c(C(=O)O)c1 | 0.5 (≈ 0.872 µM) |
| N#Cc1ccc(NC(=O)c2cc3cccc(NC(=O)c4cc5ccccc5[nH]4)c3[nH]2)c(C(=O)O)c1 | 0.25 (≈ 0.539 µM) |
| Cn1c(C(=O)Nc2cccc3cc(C(=O)Nc4ccc(C#N)cc4C(=O)O)[nH]c23)cc2ccccc21 | 0.125 (≈ 0.262 µM) |
| N#Cc1ccc(NC(=O)c2cc3cccc(NC(=O)c4cc(-c5ccccc5)on4)c3[nH]2)c(C(=O)O)c1 | 1 (≈ 2.03 µM) |
| N#Cc1ccc(NC(=O)c2cc3cccc(NC(=O)CCCCc4ccccc4)c3[nH]2)c(C(=O)O)c1 | 0.25 (≈ 0.52 µM) |
| N#Cc1ccc(NC(=O)c2cc3cccc(NC(=O)CCCc4ccccc4)c3[nH]2)c(C(=O)O)c1 | 0.5 (≈ 1.07 µM) |
| COc1ccc(CCCC(=O)Nc2cccc3cc(C(=O)Nc4ccc(C#N)cc4C(=O)O)[nH]c23)cc1 | 1 (≈ 2.01 µM) |
| CCCC(C)Sc1ccc(C(=O)Nc2ccc(C#N)cc2C(=O)O)cn1 (stereo not drawn) | 0.125 (≈ 0.338 µM) |
| Cc1ccsc1-c1cc(C(=O)Nc2ccc(C#N)cc2C(=O)O)no1 | 0.125 (≈ 0.354 µM) |
| COc1cccc(-c2cnc(C(=O)Nc3ccc(C#N)cc3C(=O)O)o2)c1 | 0.5 (≈ 1.38 µM) |
| N#Cc1ccc(NC(=O)c2cc3cccc(NC(=O)Cc4ccccc4Cl)c3[nH]2)c(C(=O)O)c1 | 0.25 (≈ 0.529 µM) |
| N#Cc1ccc(NC(=O)c2cc3cccc(NC(=O)Cc4ccc(Cl)cc4Cl)c3[nH]2)c(C(=O)O)c1 | 0.25 (≈ 0.493 µM) |

| Compound | MIC [µg/mL] |
| --- | --- |
| N#Cc1ccc(NC(=O)c2cc3cccc(NC(=O)Cc4ccc(Cl)c(Cl)c4)c3[nH]2)c(C(=O)O)c1 | 0.125 (≈ 0.246 µM) |
| N#Cc1ccc(NC(=O)c2cc3cccc(NC(=O)Cc4cccc(Cl)c4)c3[nH]2)c(C(=O)O)c1 | 0.25 (≈ 0.529 µM) |
| N#Cc1ccc(NC(=O)c2cc3cccc(NC(=O)Cc4cccc(C(F)(F)F)c4)c3[nH]2)c(C(=O)O)c1 | 0.25 (≈ 0.494 µM) |
| Cc1cccc(CC(=O)Nc2cccc3cc(C(=O)Nc4ccc(C#N)cc4C(=O)O)[nH]c23)c1 | 0.125 (≈ 0.276 µM) |
| CC(C)(C)c1ccc(CC(=O)Nc2cccc3cc(C(=O)Nc4ccc(C#N)cc4C(=O)O)[nH]c23)cc1 | 0.5 (≈ 1.01 µM) |
| COc1cccc(CC(=O)Nc2cccc3cc(C(=O)Nc4ccc(C#N)cc4C(=O)O)[nH]c23)c1 | 0.5 (≈ 1.07 µM) |
| COc1ccccc1CC(=O)Nc1cccc2cc(C(=O)Nc3ccc(C#N)cc3C(=O)O)[nH]c12 | 0.5 (≈ 1.07 µM) |
| Cc1ccccc1CC(=O)Nc1cccc2cc(C(=O)Nc3ccc(C#N)cc3C(=O)O)[nH]c12 | 0.25 (≈ 0.553 µM) |
| N#Cc1ccc(NC(=O)c2cc3cccc(NC(=O)Cc4ccc(C(F)(F)F)cc4)c3[nH]2)c(C(=O)O)c1 | 0.5 (≈ 0.987 µM) |
| CC(C)c1ccc(CC(=O)Nc2cccc3cc(C(=O)Nc4ccc(C#N)cc4C(=O)O)[nH]c23)cc1 | 0.5 (≈ 1.04 µM) |
| Cc1ccc(CC(=O)Nc2cccc3cc(C(=O)Nc4ccc(C#N)cc4C(=O)O)[nH]c23)cc1 | 0.5 (≈ 1.11 µM) |
| N#Cc1ccc(NC(=O)c2cc3cccc(NC(=O)Cc4ccc(F)cc4)c3[nH]2)c(C(=O)O)c1 | 0.25 (≈ 0.548 µM) |
| CCCCSc1cnc(C(=O)Nc2ccc(C#N)cc2C(=O)O)cn1 | 0.125 (≈ 0.351 µM) |
| N#Cc1ccc(NC(=O)c2cc3cccc(NC(=O)Cc4ccccc4C(F)(F)F)c3[nH]2)c(C(=O)O)c1 | 1 (≈ 1.97 µM) |
| N#Cc1ccc(NC(=O)c2cc3cccc(NC(=O)Cc4cccc(F)c4)c3[nH]2)c(C(=O)O)c1 | 0.25 (≈ 0.548 µM) |
| N#Cc1ccc(NC(=O)c2cc3cccc(NC(=O)CSc4ccccc4)c3[nH]2)c(C(=O)O)c1 | 0.5 (≈ 1.06 µM) |
| N#Cc1ccc(NC(=O)c2cc3cccc(NC(=O)Cc4ccc5ccccc5c4)c3[nH]2)c(C(=O)O)c1 | 0.25 (≈ 0.512 µM) |
| N#Cc1ccc(NC(=O)c2cc3cccc(NC(=O)Cc4cccc5ccccc45)c3[nH]2)c(C(=O)O)c1 | 0.125 (≈ 0.256 µM) |
| N#Cc1ccc(NC(=O)c2cc3cccc(NC(=O)COc4ccc5ccccc5c4)c3[nH]2)c(C(=O)O)c1 | 0.25 (≈ 0.496 µM) |
| CCCOc1ccccc1C(=O)Nc1cccc2cc(C(=O)Nc3ccc(C#N)cc3C(=O)O)[nH]c12 | 1 (≈ 2.07 µM) |
| N#Cc1ccc(NC(=O)c2cc3cccc(NC(=O)C4CCOC4)c3[nH]2)c(C(=O)O)c1 (stereo not drawn) | 2 (≈ 4.78 µM) |
